Test results taken from ChEMBL document CHEMBL1152639, “Design, synthesis and nootropic activity of new analogues of sunifiram and sapunifiram, two potent cognition-enhancers” (Bioorg Med Chem, 2009).
The source made the active and inactive calls. The calls are words filed in the database; no cut-off is given here.

Key:
[1] = system: Mus musculus; experiment: Antiamnesic activity against scopolamine-induced amnesia in ip dosed mouse by passive-avoidance test; assay type: functional; details: read-out: MED
[2] = system: Mus musculus; experiment: Toxicity in ip dosed mouse assessed as change in gross behavior; assay type: organism-based; details: in vivo
[3] = system: Mus musculus; experiment: Toxicity in ip dosed mouse assessed as change motor coordination by rota rod test; assay type: organism-based; details: in vivo
[4] = system: Mus musculus; experiment: Effect on spontaneous motility in ip dosed mouse by hole-board test; assay type: functional, organism-based
[5] = system: Mus musculus; experiment: Effect on inspection activity in ip dosed mouse by hole-board test; assay type: functional, organism-based
[6] = system: Mus musculus; experiment: Ratio of MED for drug to MED for piracetam against scopolamine-induced amnesia in ip dosed mouse by passive-avoidance test; assay type: functional
[7] = system: Mus musculus; experiment: Procognitive effect in ip dosed mouse assessed as inhibition of memory deficit by passive-avoidance test; assay type: functional; details: read-out: MED

SMILES | minimal effective dose [1] [mg/kg] | Ratio [6] | also measured
NC(=O)CN1CCCC1=O [PIRACETAM] | 30 | – | Activity [2]: Non-toxic; Activity [3]: Non-toxic; Activity [4]: inactive; Activity [5]: inactive
CCC(=O)N1CCCN(S(=O)(=O)c2ccc(F)cc2)C1 | 1 | – | –
CCC(=O)N1CCN(C(=O)Oc2ccccc2)CC1 | 10 | – | –
CC(=O)N1CCN(S(=O)(=O)c2ccc(F)cc2)CC1 | 0.01 | 30 | –
CC(=O)N1CCCN(C(=O)c2ccccc2)C1 | 1 | – | –
CCC(=O)N1CCN(C(C)=O)CC1 | 10 | – | –
CCC(=O)N1CCCN(C(=O)c2ccccc2)C1 | 1 | – | –
CCC(=O)N1CCN(S(=O)(=O)c2ccc(F)cc2)C1 | 1 | – | –
CCC(=O)N1CCN(C(=O)c2ccccc2)C1 | 1 | – | –
CC(=O)N1CCCN(S(=O)(=O)c2ccc(F)cc2)CC1 | 1 | 30 | minimal effective dose [7]: 10 mg/kg
CCCS(=O)(=O)N1CCCN(C(=O)CC)CC1 | > 10 | 30 | –
CCNC(=O)C1CCN(S(=O)(=O)c2ccc(F)cc2)CC1 | 1 | – | –
CCCS(=O)(=O)N1CCN(C(=O)CC)C1 | > 10 | – | –
CCC(=O)N1CCC(NC(C)=O)CC1 | > 10 | – | –
CCCS(=O)(=O)N1CCCN(C(C)=O)CC1 | > 10 | 30 | –
CC(=O)N1CCN(C(=O)c2ccccc2)C1 | 1 | – | –
CCCS(=O)(=O)N1CCN(C(C)=O)CC1 | 0.1 | 30 | –
CCC(=O)N1CCN(S(=O)(=O)c2ccc(F)cc2)CC1 | 0.01 | 30 | –
CCC(=O)N1CCN(C(=O)CC)CC1 | > 10 | – | –

SMILES | minimal effective dose [1] [mg/kg] | Ratio [6] | also measured
CC(=O)N1CCN(S(=O)(=O)c2ccc(F)cc2)C1 | 1 | – | –
CCC(=O)NC1CCN(C(C)=O)CC1 | 10 | – | –
CCC(=O)N1CCCN(S(=O)(=O)c2ccc(F)cc2)CC1 | 1 | 30 | minimal effective dose [7]: 10 mg/kg
CC(=O)N1CCCN(C(=O)Cc2ccccc2)CC1 | 0.01 | 30 | minimal effective dose [7]: 1 mg/kg
CCCS(=O)(=O)N1CCCN(C(C)=O)C1 | 1 | – | –
CC(=O)NC1CCN(S(=O)(=O)c2ccc(F)cc2)CC1 [SAPUNIFIRAM] | 0.01 | – | minimal effective dose [7]: 0.1 mg/kg; Activity [2]: Non-toxic; Activity [3]: Non-toxic; Activity [4]: inactive; Activity [5]: inactive
CCCS(=O)(=O)N1CCN(C(C)=O)C1 | 10 | – | –
CCC(=O)N1CCN(C(=O)c2ccccc2)CC1 [SUNIFIRAM] | 0.001 | 30 | minimal effective dose [7]: 0.01 mg/kg; Activity [2]: Non-toxic; Activity [3]: Non-toxic; Activity [4]: inactive; Activity [5]: inactive
CCC(=O)N1CCCN(C(=O)c2ccccc2)CC1 | 0.1 | 30 | minimal effective dose [7]: 1 mg/kg
CC(=O)N1CCCN(C(=O)c2ccccc2)CC1 | 0.01 | 30 | minimal effective dose [7]: 1 mg/kg
CC(=O)N1CCCN(S(=O)(=O)c2ccc(F)cc2)C1 | 1 | – | –
CCC(=O)N1CCN(C(=O)Cc2ccccc2)CC1 | 1 | – | –
CNC(=O)C1CCN(S(=O)(=O)c2ccc(F)cc2)CC1 | 0.1 | – | minimal effective dose [7]: 1 mg/kg
CCCS(=O)(=O)N1CCN(C(=O)CC)CC1 | 1 | 30 | –
CCC(=O)N1CCN(C(=O)Nc2ccccc2)CC1 | > 10 | – | –
CCCS(=O)(=O)N1CCCN(C(=O)CC)C1 | > 10 | – | –
CC(=O)NC(=O)C1CCN(S(=O)(=O)c2ccc(F)cc2)CC1 | 1 | – | –
CC(=O)N1CCN(C(=O)c2ccccc2)CC1 | 10 | 30 | –
